# Assay results from patent publication US20220290085A1, “CELL-SENSORY BIOSCAFFOLDS, FABRICATION METHODS AND APPLICATIONS OF SAME” (BOARD OF TRUSTEES OF THE UNIVERSITY OF ARKANSAS, priority 2019, published 2022).
# Experiments:
# [1] = test system: breast cancer cells (MCF7); assay: Doxorubicin drug cytotoxicity in cell culture; type: cell-based, human; settings: drug cytotoxicity assessment, FIG. 23
# Description: Impedance Measurement for Doxorubicin Drug Effect on Breast Cancer Cell Lines: This test was performed to investigate the effect of a well-known chemotherapy drug Doxorubicin on two different cancer cell lines. Doxorubicin (DOX, C27H29NO11), also called Adriamycin™, is a popular chemotherapy drug for treating several types of cancer including breast cancer via triggering the cancer cell death. This drug was used to quantify the drug effect on breast cancer cells' metabolism in response to stresses from different dosages of the DOX, via monitoring the impedance signal change from the cancer cells before and after the DOX treatment. The drug cytotoxicity was assessed to determine the concentration of 2.0 μM, which the cancer cells start to die in a proper pace that can enable us to quantitatively characterize the DOX effect on the cancer cell's metabolism and apoptosis directly on the smart bioscaffold, as shown in FIG. 23.
# MDA-MB231 = assay: Impedance on TiO2 nanowire bioscaffold sensor of DOX-treated MDA-MB231 cells; type: cell-based, human; settings: DOX 2 μM 24 hrs, FIG. 25
# Description: (§1) To investigate the cell impedance change due to the DOX, the two cell lines were first cultured to reach about 90% confluence and then the DOX (2 μM) was added over two time-intervals, about 24 hours and about 48 hours. The cells were then harvested using trypsin and counted using the hemocytometer and trypan blue stain to control the cell number. The cells were then suspended in about 10 mL of 1×PBS with the TiO2 nanowires sensor for about 35 minutes, and the impedance was tested likewise from about 40 kHz to about 1 MHz. The DOX is supposed to decrease the MCF7 impedance due to cell's resistance to the DOX. This is because the overexpressed P-glycoprotein 1 (P-gp), also called multidrug resistance protein 1 (MDR1) or ATP-binding cassette sub-family B member 1 (ABCB1) or cluster of differentiation 243 (CD243), can pump the foreign molecules out of the MCF7 cell.
# (§2) The second set of experiment was done as in the first step, with glucose (5.5 mM) in the cell suspensions to investigate the cell impedance correspondence to glucose effect after being treated with DOX. The biosensors were done after about 35 minutes in the cell suspension, with the impedance parameters same as described previously.
# MCF7 [2] = settings: MCF7 vs MDA-MB231; cited from earlier work
# MCF7 [3] = assay: Impedance on TiO2 nanowire bioscaffold sensor of DOX-treated MCF7 cells; type: cell-based, human; settings: DOX 2 μM 24 hrs, then glucose 5.5 mM for 35 minutes, 1×PBS, FIG. 24
# Description: as §1, §2
structure (smiles),measurement,setting,value
COc1cccc2c1C(=O)c1c(O)c3c(c(O)c1C2=O)C[C@@](O)(C(=O)CO)C[C@@H]3O[C@H]1C[C@H](N)[C@H](O)[C@H](C)O1 [Doxorubicin],concentration at which the cancer cells start to die in a proper pace,[1],2.0 µM
same,response to glucose after being pre-treated with DOX,MDA-MB231; glucose 5.5 mM,no significant response to glucose
same,impedance on the bioscaffold after DOX pre-treatment and glucose incubation,"MDA-MB231; then glucose 5.5 mM for 35 minutes, 1×PBS",lower impedance
same,resistance of MCF7 to DOX compared with MDA-MB231,MCF7 [2],more resistive
same,impedance on the bioscaffold at low frequency after DOX pre-treatment and glucose incubation,MCF7 [3],higher impedance
